Experiments:
Assay type in all cases: binding
[1] = molecular target: KRAS G12D:SOS1 (Homo sapiens, UniProt P01116, G12D); test: KRAS G12D:SOS1 GDP TR-FRET assay; conditions: GST-KRAS G12D 37.5 nM, GDP 10 μM, His-SOS1 18 nM
Experimental: (§1) KRAS:SOS1 GDP TR-FRET Assay
(§2) This assay was used to identify compounds which competitively interact with the binding of KRAS protein to SOS1 in the presence of GDP. […] All protein and reaction solutions were prepared in assay buffer containing DPBS pH7.5, 0.1% BSA, and 0.05% Tween 20. Purified GST-tagged WT KRAS or KRAS G12D protein (37.5 nM final assay concentration) and GDP (Sigma, 10 μM final assay concentration) mixture, a serially diluted compound (top final concentration is 50 μM or 10 uM, 3-fold serially diluted, 10 points) and His-tagged SOS1 protein (18 nM final assay concentration) were added into the assay plates (384 well microplate, black, Corning) sequentially. Plates are incubated at 24° C. for 1 hr. Following the incubation, Mab Anti-GST-Tb cryptate (Cisbio) and […] (Cisbio) were added and further incubated at 24° C. for another 1 hr. The TR-FRET signals (ex337 nm, em665 nm/620 nm) were read on BMG PHERAstar FSX instrument. The inhibition percentage of KRAS protein binding with SOS1 in presence of increasing concentrations of compounds was calculated based on the ratio of fluorescence at 665 nm to that at 620 nm. The IC50 value of each compound was calculated from fitting the data to the four-parameter logistic model by Dotmatics.

[2] = molecular target: WT KRAS:SOS1 (Homo sapiens, UniProt P01116); test: KRAS WT:SOS1 GDP TR-FRET assay; conditions: GST-WT KRAS 37.5 nM, GDP 10 μM, His-SOS1 18 nM
Experimental: as §1, §2

[3] = molecular target: GDP-loaded KRAS G12D (Homo sapiens, UniProt P01116, G12D); test: KRAS G12D Probe Displacement Assay; conditions: KRAS G12D 0.5 nM, biotinylated probe 2 4 nM; Table 6 letters; read-out: KRAS G12D Probe Displacement Assay IC50 (class)
Sequence of GDP-loaded KRAS G12D (P01116 1-188 isoform P01116-2 G12D): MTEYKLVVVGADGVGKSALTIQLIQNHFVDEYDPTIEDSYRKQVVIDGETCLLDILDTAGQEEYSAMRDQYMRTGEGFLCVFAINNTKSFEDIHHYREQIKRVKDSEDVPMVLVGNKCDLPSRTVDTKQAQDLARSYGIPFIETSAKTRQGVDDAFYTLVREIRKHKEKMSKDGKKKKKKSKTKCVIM

Sequence of KRAS G12D:SOS1 (P01116 1-188 isoform P01116-2 G12D): as above
Sequence of WT KRAS:SOS1 (P01116 1-188 isoform P01116-2): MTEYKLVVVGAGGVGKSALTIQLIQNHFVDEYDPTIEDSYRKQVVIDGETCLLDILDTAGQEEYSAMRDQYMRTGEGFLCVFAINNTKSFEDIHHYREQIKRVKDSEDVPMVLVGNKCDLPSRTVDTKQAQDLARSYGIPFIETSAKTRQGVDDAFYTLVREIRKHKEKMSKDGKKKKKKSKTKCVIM

SMILES: CN(C)C1CN(c2nc(N3CCNCC3)c3cc(Cl)c(-c4cc(O)cc5ccccc45)c(F)c3n2)C1 [Example E2, 4-(6-chloro-2-(3-(dimethylamino)azetidin-1-yl)-8-fluoro-4-(piperazin-1-yl)quinazolin-7-yl)naphthalen-2-ol]
- IC50 [1]: 4.85 µM
- IC50 [2]: > 50 µM

SMILES: C[C@@H](CN1CC(F)(F)C1)Oc1nc(N2CC3CCC(C2)N3)c2cc(Cl)c(-c3ccc(F)c4sc(N)nc34)c(F)c2n1 [Example E32, 4-(4-(3,8-diazabicyclo[3.2.1]octan-3-yl)-6-chloro-2-(((S)-1-(3,3-difluoroazetidin-1-yl)propan-2-yl)oxy)-8-fluoroquinazolin-7-yl)-7-fluorobenzo[d]thiazol-2-amine]
- IC50 [1]: 0.081 µM
- IC50 [2]: > 10 µM

SMILES: Nc1nc2c(-c3c(Cl)cc4c(N5CCNCC5)nc(OCCCN5CCN(CCCOCCC(=O)NCCOCCNC(=O)CCCC[C@@H]6SC[C@@H]7NC(=O)N[C@@H]76)CC5)nc4c3F)ccc(F)c2s1 [Example E56, N-(2-(2-(3-(3-(4-(3-((7-(2-amino-7-fluorobenzo[d]thiazol-4-yl)-6-chloro-8-fluoro-4-(piperazin-1-yl)quinazolin-2-yl)oxy)propyl)piperazin-1-yl)propoxy)propanamido)ethoxy)ethyl)-5-((3 aS, 4S,6aR)-2-oxohexahydro-1H-thieno[3,4-d]imidazol-4-yl)pentanamide]
- IC50 [1]: 0.021 µM
- IC50 [2]: 0.37 µM

SMILES: CS(=O)(=O)N1CCN(c2nc(OC[C@@H]3CCCN3CCCOCCC(=O)NCCOCCNC(=O)CCCC[C@@H]3SC[C@@H]4NC(=O)N[C@@H]43)nc3c2CCN(c2cccc4cccc(Cl)c24)C3)C[C@@H]1CC#N [Example E57, N-(2-(2-(3-(3-((S)-2-(((7-(8-chloronaphthalen-1-yl)-4-((S)-3-(cyanomethyl)-4-(methylsulfonyl)piperazin-1-yl)-5,6,7,8-tetrahydropyrido[3,4-d]pyrimidin-2-yl)oxy)methyl)pyrrolidin-1-yl)propoxy)propanamido)ethoxy)ethyl)-5-((3aS,4S,6aR)-2-oxohexahydro-1H-thieno[3,4-d]imidazol-4-yl)pentanamide]
- IC50 [1]: > 10 µM
- IC50 [2]: 0.13 µM

SMILES: Cc1cc(N)nc(-c2c(Cl)cc3c(N4CC5CCC(C4)N5)nc(OCC45COC(C4)C5)nc3c2F)c1C(F)(F)F [Example E224, 6-(2-((2-oxabicyclo[2.1.1]hexan-4-yl)methoxy)-4-(3,8-diazabicyclo[3.2.1]octan-3-yl)-6-chloro-8-fluoroquinazolin-7-yl)-4-methyl-5-(trifluoromethyl)pyridin-2-amine]
- IC50 [3]: < 0.05 µM

SMILES: Cc1cc(N)nc(-c2c(Cl)cc3c(N4CC5CCC(C4)N5)nc(OCC4(C)CCC(=O)NC4)nc3c2F)c1C(F)(F)F (stereo not shown) [Example E225, 5-(((7-(6-amino-4-methyl-3-(trifluoromethyl)pyridin-2-yl)-4-(3,8-diazabicyclo[3.2.1]octan-3-yl)-6-chloro-8-fluoroquinazolin-2-yl)oxy)methyl)-5-methylpiperidin-2-one]
- IC50 [3]: < 0.05 µM

SMILES: CC(=O)N1CC(COc2nc(N3CC4CCC(C3)N4)c3cc(Cl)c(-c4nc(N)cc(C)c4C(F)(F)F)c(F)c3n2)C1 [Example E226, 1-(3-(((7-(6-amino-4-methyl-3-(trifluoromethyl)pyridin-2-yl)-4-(3,8-diazabicyclo[3.2.1]octan-3-yl)-6-chloro-8-fluoroquinazolin-2-yl)oxy)methyl)azetidin-1-yl)ethan-1-one]
- IC50 [3]: < 0.05 µM

SMILES: Cc1cc(N)nc(-c2c(Cl)cc3c(N4CC5CCC(C4)N5)nc(OCC4(CO)CC(F)C4)nc3c2F)c1C(F)(F)F (stereo not shown) [Example E227, (1-(((7-(6-amino-4-methyl-3-(trifluoromethyl)pyridin-2-yl)-4-(3,8-diazabicyclo[3.2.1]octan-3-yl)-6-chloro-8-fluoroquinazolin-2-yl)oxy)methyl)-3-fluorocyclobutyl)methanol]
- IC50 [3]: < 0.05 µM

SMILES: Cc1cc(N)nc(-c2c(Cl)cc3c(N4CC5CCC(C4)N5)nc(OCC4CS(=O)(=O)C4)nc3c2F)c1C(F)(F)F [Example E228, 3-(((7-(6-amino-4-methyl-3-(trifluoromethyl)pyridin-2-yl)-4-(3,8-diazabicyclo[3.2.1]octan-3-yl)-6-chloro-8-fluoroquinazolin-2-yl)oxy)methyl)thietane 1,1-dioxide]
- IC50 [3]: < 0.05 µM

SMILES: Cc1cc(N)nc(-c2c(Cl)cc3c(N4CC5CCC(C4)N5)nc(OCC45CCC(CC4)OC5)nc3c2F)c1C(F)(F)F [Example E229, 6-(2-((2-oxabicyclo[2.2.2]octan-4-yl)methoxy)-4-(3,8-diazabicyclo[3.2.1]octan-3-yl)-6-chloro-8-fluoroquinazolin-7-yl)-4-methyl-5-(trifluoromethyl)pyridin-2-amine]
- IC50 [3]: < 0.05 µM

SMILES: Cc1cc(N)nc(-c2c(Cl)cc3c(N4CC5CCC(C4)N5)nc(OCC4(CO)CCOC4)nc3c2F)c1C(F)(F)F (stereo not shown) [Example E230, (3-(((7-(6-amino-4-methyl-3-(trifluoromethyl)pyridin-2-yl)-4-(3,8-diazabicyclo[3.2.1]octan-3-yl)-6-chloro-8-fluoroquinazolin-2-yl)oxy)methyl)tetrahydrofuran-3-yl)methanol]
- IC50 [3]: < 0.05 µM

SMILES: Cc1cc(N)nc(-c2c(Cl)cc3c(N4CC5CCC(C4)N5)nc(OCC4C5COCC54)nc3c2F)c1C(F)(F)F (stereo not shown) [Example E231, 6-(2-((3-oxabicyclo[3.1.0]hexan-6-yl)methoxy)-4-(3,8-diazabicyclo[3.2.1]octan-3-yl)-6-chloro-8-fluoroquinazolin-7-yl)-4-methyl-5-(trifluoromethyl)pyridin-2-amine]
- IC50 [3]: 0.1 to 1 µM

SMILES: CC(=O)N1CCC(COc2nc(N3CC4CCC(C3)N4)c3cc(Cl)c(-c4nc(N)cc(C)c4C(F)(F)F)c(F)c3n2)C1 (stereo not shown) [Example E232, 1-(3-(((7-(6-amino-4-methyl-3-(trifluoromethyl)pyridin-2-yl)-4-(3,8-diazabicyclo[3.2.1]octan-3-yl)-6-chloro-8-fluoroquinazolin-2-yl)oxy)methyl)pyrrolidin-1-yl)ethan-1-one]
- IC50 [3]: < 0.05 µM

SMILES: COC(C)(CO)COc1nc(N2CC3CCC(C2)N3)c2cc(Cl)c(-c3nc(N)cc(C)c3C(F)(F)F)c(F)c2n1 (stereo not shown) [Example E233, 3-((7-(6-amino-4-methyl-3-(trifluoromethyl)pyridin-2-yl)-4-(3,8-diazabicyclo[3.2.1]octan-3-yl)-6-chloro-8-fluoroquinazolin-2-yl)oxy)-2-methoxy-2-methyl propan-1-ol]
- IC50 [3]: < 0.05 µM

SMILES: CC(=O)N1CCCC(COc2nc(N3CC4CCC(C3)N4)c3cc(Cl)c(-c4nc(N)cc(C)c4C(F)(F)F)c(F)c3n2)C1 (stereo not shown) [Example E234, 1-(3-(((7-(6-amino-4-methyl-3-(trifluoromethyl)pyridine-2-yl)-4-(3,8-diazabicyclo[3.2.1]octan-3-yl)-6-chloro-8-fluoroquinazolin-2-yl)oxy)methyl)piperidin-1-yl)ethan-1-one]
- IC50 [3]: 0.05 to 0.1 µM

SMILES: CC12CC(COc3nc(N4CC5CCC(C4)N5)c4cc(C(F)(F)F)c(-c5ccc(F)c6sc(N)c(C#N)c56)c(F)c4n3)(CO1)C2 [Example E235, 4-(4-(3,8-diazabicyclo[3.2.1]octan-3-yl)-8-fluoro-2-((1-methyl-2-oxabicyclo[2.1.1]hexan-4-yl)methoxy)-6-(trifluoromethyl)quinazolin-7-yl)-2-amino-7-fluoro benzo[b]thiophene-3-carbonitrile]
- IC50 [3]: < 0.05 µM

SMILES: N#Cc1c(N)sc2c(F)ccc(-c3c(C(F)(F)F)cc4c(N5CC6CCC(C5)N6)nc(OCC56COC(C5)C6)nc4c3F)c12 [Example E236, 4-(2-((2-oxabicyclo[2.1.1]hexan-4-yl)methoxy)-4-(3,8-diazabicyclo[3.2.1]octan-3-yl)-8-fluoro-6-(trifluoromethyl)quinazolin-7-yl)-2-amino-7-fluorobenzo [b]thiophene-3-carbonitrile]
- IC50 [3]: < 0.05 µM

SMILES: Nc1cc(-c2cc3nc(OC[C@@]45CCCN4C[C@H](F)C5)nc(N4CC5CCC(C4)N5)c3cc2Cl)c(C(F)(F)F)c(C(F)(F)F)c1 [Example E237, 3-(4-(3,8-diazabicyclo[3.2.1]octan-3-yl)-6-chloro-2-(((2R,7aS)-2-fluorotetrahydro-1H-pyrrolizin-7a(5H)-yl)methoxy)quinazolin-7-yl)-4,5-bis (trifluoromethyl) aniline]
- IC50 [3]: < 0.05 µM
